{"source": "patent US5945549A", "about": "“Production of aqueous solutions of mixtures of formyltertrahydrofuran and hydrates thereof” (Eastman Chemical Company, priority 1999, dated 1999)", "key": {"[1]": {"format": "physicochemical", "procedure": "Partition coefficients also were determined by the same procedures for using the inert organic solvents 1-decanol (alcohol), isobutyl isobutyrate (ester, IBIB), 2,2,4-trimethyl-1,3-pentanediol monoisobutyrate (alcohol ester, TMPD-MIB), and dimethyl terphthalate (aromatic diester, DMT)."}, "[2]": {"assay": "Solvent partition coefficient into water, with and without 3-FTHF co-solvent (Examples 45-56)", "format": "physicochemical", "conditions": "no co-solvent; H2O:(S + CS) 1:1", "source_text": "These examples include materials which could act as solvents for the reaction and extraction."}, "[3]": {"assay": "Hydration equilibrium 3-FTHF/3-DHMTHF in water by proton nuclear magnetic resonance", "format": "physicochemical", "procedure": "The maximum density shown in Table I corresponds approximately to the composition for 3-DHMTHF. […] Confirmation of the formation of 3-DHMTHF when 3-FTHF is added to water comes from proton Nuclear Magnetic Resonance spectroscopy. At room temperature, 50 weight percent solutions of aqueous 3-FTHF show two components: 79 mole percent 3-DHMTHF and only 21 mole percent 3-FTHF. Furthermore, changing the water concentration either directly or by using water miscible solvents reversibly changes the 3-DHMTHF:3-FTHF mole ratio indicating a rapidly established equilibrium between the two components as well as showing their relative stability. The relative amounts of 3-FTHF and 3-DHMTHF at varying water/3-FTHF concentrations as determined by proton nuclear magnetic resonance spectroscopy are shown in Table II wherein the values given for \"Water\", \"3-FTHF\" and \"Solvent\" are weight percentages based on the total weight of the 3 component composition and \"Solvent\" refers to CD3 COCD3 (NMR solvent).\nIn Table II the value given for the 3-FTHF component is the amount of 3-FTHF dissolved in the composition although in aqueous solution it exists both as 3-FTHF and 3-DHMTHF. Some of the 3-FTHF in the water solution also exists in the form of an acetal, e.g., depending on the concentration, up to about 70 mole percent (at very high concentrations) but usually only about 0.5 mole percent (at 50 weight percent concentration) of the 3-FTHF is in the form of an acetal having the structure: [drawing 4] wherein n is 2."}, "[4]": {"assay": "Partition coefficient of triphenylphosphine between toluene and water", "format": "physicochemical", "source_text": "Rhodium, the other component of the catalyst, exists primarily as rhodium (I) hydrido carbonyl bis (triphenylphosphine) complex and accompanies the triphenylphosphine with a similar partition coefficient."}, "[5]": {"assay": "3-FTHF solubility in solvent", "format": "physicochemical", "procedure": "Partition coefficients also were determined by the same procedures for using the inert organic solvents 1-decanol (alcohol), isobutyl isobutyrate (ester, IBIB), 2,2,4-trimethyl-1,3-pentanediol monoisobutyrate (alcohol ester, TMPD-MIB), and dimethyl terphthalate (aromatic diester, DMT). The 3-FTHF:Solvent:Water volume ratios used in each of Examples 37-44 was 3:3:4. The partition coefficients are shown in Table VI wherein the values specified for 3-FTHF Solubility in Solvent are weight percentages, the values given for Temp are the temperatures (° C.), K3FTHF is the partition coefficient for 3-FTHF determined as described above and Ksolvent is the coefficient for the solvent utilized in each example determined form its solubility in the two phase and affected by the presence of the 3-FTHF substrate."}, "[6]": {"assay": "Share of diol, hemiacetal or acetal in aqueous solution", "format": "physicochemical"}, "[7]": {"conditions": "3-FTHF:Solvent:Water 3:3:4 by volume, 24.1-25.7 °C"}, "[8]": {"conditions": "50 weight percent aqueous 3-FTHF, room temperature"}, "[9]": {"conditions": "Water 6.1, 3-FTHF 6.3, CD3COCD3 87.6 wt %"}, "[10]": {"conditions": "Water 10.4, 3-FTHF 13.8, CD3COCD3 75.8 wt %"}, "[11]": {"conditions": "Water 15.2, 3-FTHF 20.2, CD3COCD3 64.6 wt %"}, "[12]": {"conditions": "Water 19.8, 3-FTHF 26.2, CD3COCD3 54.0 wt %"}, "[13]": {"conditions": "Water 24.1, 3-FTHF 32.0, CD3COCD3 43.9 wt %"}, "[14]": {"conditions": "Water 31.4, 3-FTHF 43.5, CD3COCD3 25.1 wt %"}, "[15]": {"conditions": "Water 36.9, 3-FTHF 46.6, CD3COCD3 16.5 wt %"}, "[16]": {"conditions": "Water 37.6, 3-FTHF 54.4, CD3COCD3 8.0 wt %"}, "[17]": {"conditions": "Water 45.0, 3-FTHF 55.0, CD3COCD3 0.0 wt %"}}, "note": "Like-named read-outs stand apart in the source and are kept apart here."}
{"molecule": "CCCCCCCCCC", "note": "[n-Decane, decane, reference compound]", "values": [{"measurement": "KSolvent partition coefficient", "setting": "[1]", "value": 0.00661}]}
{"molecule": "Cc1ccc(C)cc1", "note": "[p-Xylene, p-xylene, reference compound]", "values": [{"measurement": "KSolvent partition coefficient", "setting": "[1]; [7]", "value": 0.0074}, {"measurement": "Solvent Partition Coefficient", "setting": "[2]", "value": 0.00015}]}
{"molecule": "2,2,4-trimethyl-1,3-pentanediol monoisobutyrate [TMPD-MIB, reference compound]", "values": [{"measurement": "KSolvent partition coefficient", "setting": "[1]", "value": 0.00481}]}
{"molecule": "CCCCCCCCCCO", "note": "[1-Decanol, 1-decanol, reference compound]", "values": [{"measurement": "KSolvent partition coefficient", "setting": "[1]; [7]", "value": 0.01695}, {"measurement": "Solvent Partition Coefficient", "setting": "[2]", "value": 0.00028}]}
{"molecule": "CC(C)COC(=O)C(C)C", "note": "[IBIB, isobutyl isobutyrate, reference compound]", "values": [{"measurement": "KSolvent partition coefficient", "setting": "[1]; [7]", "value": 0.00772}, {"measurement": "Solvent Partition Coefficient", "setting": "[2]", "value": 0.00116}]}
{"molecule": "OC(O)C1CCOC1", "note": "(stereo not shown) [3-DHMTHF, 3-Dihydroxymethyltetrahydrofuran]", "values": [{"measurement": "Mole Percent in equilibrium", "setting": "[3]; [8]", "value": 79, "unit": "mole percent"}, {"measurement": "Mole Percent in equilibrium", "setting": "[3]; [9]", "value": 21.6, "unit": "Mole Percent"}, {"measurement": "Mole Percent in equilibrium", "setting": "[3]; [10]", "value": 31.2, "unit": "Mole Percent"}, {"measurement": "Mole Percent in equilibrium", "setting": "[3]; [11]", "value": 41.9, "unit": "Mole Percent"}, {"measurement": "Mole Percent in equilibrium", "setting": "[3]; [12]", "value": 48.9, "unit": "Mole Percent"}, {"measurement": "Mole Percent in equilibrium", "setting": "[3]; [13]", "value": 56.6, "unit": "Mole Percent"}, {"measurement": "Mole Percent in equilibrium", "setting": "[3]; [14]", "value": 66.7, "unit": "Mole Percent"}, {"measurement": "Mole Percent in equilibrium", "setting": "[3]; [15]", "value": 71.2, "unit": "Mole Percent"}, {"measurement": "Mole Percent in equilibrium", "setting": "[3]; [16]", "value": 75.1, "unit": "Mole Percent"}, {"measurement": "Mole Percent in equilibrium", "setting": "[3]; [17]", "value": 79.0, "unit": "Mole Percent"}]}
{"molecule": "c1ccc(P(c2ccccc2)c2ccccc2)cc1", "note": "[triphenylphosphine]", "values": [{"measurement": "effective partition coefficient of triphenylphosphine", "setting": "[4]; 10 percent emulsion", "value": 0.095}, {"measurement": "partition coefficient of triphenylphosphine between toluene and water", "setting": "[4]; Example 57, 50:1 triphenylphosphine:toluene, 1:1 water:triphenylphosphine+toluene by volume", "value": 0.00433}, {"measurement": "partition coefficient of triphenylphosphine", "setting": "[4]; aqueous/toluene, room temperature, 50 weight percent water in aqueous phase", "value": 0.0043}]}
{"molecule": "COC(=O)c1ccc(C(=O)OC)cc1", "note": "[DMT, dimethyl terphthalate, reference compound]", "values": [{"measurement": "KSolvent partition coefficient", "setting": "[1]", "value": 0.02526}]}
{"molecule": "O=CC1CCOC1", "note": "(stereo not shown) [3-FTHF, 3-formyltetrahydrofuran]", "values": [{"measurement": "3-FTHF Solubility in Solvent", "setting": "[5]; in 1-decanol", "value": 100, "unit": "weight percentages"}, {"measurement": "3-FTHF Solubility in Solvent", "setting": "[5]; in DIPB", "value": 100, "unit": "weight percentages"}, {"measurement": "3-FTHF Solubility in Solvent", "setting": "[5]; in DMT", "value": 100, "unit": "weight percentages"}, {"measurement": "3-FTHF Solubility in Solvent", "setting": "[5]; in IBIB", "value": 100, "unit": "weight percentages"}, {"measurement": "3-FTHF Solubility in Solvent", "setting": "[5]; in TMPD-MIB", "value": 100, "unit": "weight percentages"}, {"measurement": "3-FTHF Solubility in Solvent", "setting": "[5]; in isooctane", "value": 2.36, "unit": "weight percentages"}, {"measurement": "3-FTHF Solubility in Solvent", "setting": "[5]; in n-decane", "value": 0.93, "unit": "weight percentages"}, {"measurement": "3-FTHF Solubility in Solvent", "setting": "[5]; in p-xylene", "value": 100, "unit": "weight percentages"}, {"measurement": "3-FTHF Solubility in Solvent", "setting": "[5]; in toluene", "value": 100, "unit": "weight percentages"}, {"measurement": "Mole Percent in equilibrium", "setting": "[3]; [8]", "value": 21, "unit": "mole percent"}, {"measurement": "Mole Percent in equilibrium", "setting": "[3]; [9]", "value": 78.4, "unit": "Mole Percent"}, {"measurement": "Mole Percent in equilibrium", "setting": "[3]; [10]", "value": 68.8, "unit": "Mole Percent"}, {"measurement": "Mole Percent in equilibrium", "setting": "[3]; [11]", "value": 58.1, "unit": "Mole Percent"}, {"measurement": "Mole Percent in equilibrium", "setting": "[3]; [12]", "value": 51.1, "unit": "Mole Percent"}, {"measurement": "Mole Percent in equilibrium", "setting": "[3]; [13]", "value": 43.4, "unit": "Mole Percent"}, {"measurement": "Mole Percent in equilibrium", "setting": "[3]; [14]", "value": 33.3, "unit": "Mole Percent"}, {"measurement": "Mole Percent in equilibrium", "setting": "[3]; [15]", "value": 28.8, "unit": "Mole Percent"}, {"measurement": "Mole Percent in equilibrium", "setting": "[3]; [16]", "value": 24.9, "unit": "Mole Percent"}, {"measurement": "Mole Percent in equilibrium", "setting": "[3]; [17]", "value": 21.0, "unit": "Mole Percent"}, {"measurement": "3-FTHF in the form of an acetal (n is 2)", "setting": "[6]; at 50 weight percent concentration", "value": "about 0.5 mole percent"}, {"measurement": "3-FTHF in the form of an acetal (n is 2)", "setting": "[6]; at very high concentrations", "value": "up to 70 mole percent"}]}
{"molecule": "CC(C)c1cccc(C(C)C)c1", "note": "[DIPB, 1,3-diisopropylbenzene, reference compound]", "values": [{"measurement": "KSolvent partition coefficient", "setting": "[1]; [7]", "value": 0.01904}]}
{"molecule": "CC(C)CC(C)(C)C", "note": "[Isooctane, isooctane, reference compound]", "values": [{"measurement": "KSolvent partition coefficient", "setting": "[1]", "value": 0.00746}]}
{"molecule": "COC(=O)c1ccccc1C(=O)OC", "note": "[DMP, dimethyl phthalate]", "values": [{"measurement": "Solvent Partition Coefficient", "setting": "[2]", "value": 0.00731}]}
